From patent US20260125686A1, “COMPOSITIONS AND METHODS FOR MODULATION OF CFTR” (Cystic Fibrosis Foundation, priority 2022, published 2026) come the findings set out here.

This data set deals with Exon 22 truncated CFTR mRNA. As to the kind of experiment: ddPCR of Exon 22 truncated CFTR mRNA in 16HBEge-W1282X cells. Type of data set: cell-based, human. Conditions: for Exon 22 truncated CFTR mRNA: 16HBEge-W1282X (FIG. 13A); for expression of Exon 22 truncated CFTR mRNA enhanced by: ASO alone vs no ASO treatment (FIG. 13A); for fold change increase in E22 trunc mRNA levels relative to (−) ASO (100 μM): in combination SA-08 10 μM. The method, then: Free uptake ASO treatments in 16HBEs. Steric blocking ASOs were purchased from IDT with Phosphorothioate (PS) backbone and 2-O-Methoxyethyl (2′-MOE) modifications at each nucleotide. Lyophilized steric blocking ASOs were resuspended in PBS+Mg+Ca to 1 mM and stored in frozen aliquots to minimize the effects of freeze thaw cycles. 16HBEge and 16HBE14o- lines were seeded at 0.150×10^6 cells/well in 24 well plates and grown at 37° C./5% CO2 in MEM supplemented with 10% FBS and 1% Penicil-lin/Streptomycin. After 24 hours, media was refreshed with addition of ASOs and RNA was harvested after 48 hours of treatment.
ddPCR Isoform Quantification. RNA was isolated from treated cells with the Aurum Total RNA Mini Kit. One Step reverse transcriptase and quantitative PCR was performed with the iTaq Universal Probes One Step Kit. All qPCR was run on the CFX Touch Deep Well real-time PCR detection system and analyzed with Bio-Rad CFX Maestro 1.0 software (version 4.0.2325.0418). ddPCR assays were composed of: cDNA or digested genomic DNA, 2×ddPCR Supermix for Probes (no dUTP) (1× final) (Bio-Rad), 40× as-say (1× final), and nuclease free water in 20 μl total reaction volume. cDNA synthesis was performed with the iScript Advanced cDNA Synthesis Kit for RT-qPCR (Bio-Rad). Droplets were generated with QX200 Droplet Digital PCR System (Bio-Rad), cycled in the CFX Touch Deep Well real-time PCR detec-tion system (Bio-Rad), and analyzed with the QX200 Droplet Digital PCR system Droplet Reader. (Bio-Rad). Data was analyzed with the Quantasoft software version 1.7.4. ddPCR probes designed to the junction of exon 25/26 were used as a proxy of full-length WT or W1282X CFTR mRNA and probes de-signed to exon 22/intron 22 junction including the first 140 bp of intron 22 were used as a proxy of ex-on 22 truncated CFTR mRNA.
16HBEge-W1282X cells were treated with exemplary ASOs according to some embodiments of the present disclosure. In some cases, the exemplary ASOs were administered at various doses alone, in combination with other ASOs at various doses, or co-administered with Trikafta, and a plurality of assays were used to assess the effects of the ASO treatments in 16HBEge-W1282X cells.
Exon 22 truncated CFTR mRNA was assayed using ddPCR, as depicted in FIGS. 13A-13B. 16HBEge-W1282X cells were treated with SA08 alone, SD10 alone, or SA08 in combination with SD10 at various doses, in the presence of DMSO vehicle control or Trikafta. As depicted in FIG. 13A, Exon 22 truncated CFTR mRNA was increased in all groups treated with exemplary ASO(s) compared to no ASO treatment. Separate treatment of SA08 alone and SD10 alone enhanced the expression of Exon 22 truncated CFTR mRNA by about 100% and by over 200%, from less than 20000 copies per 40 ng RNA to about 30000 copies and about 65000 copies per 40 ng RNA, respectively. The combination of SA08 and SD10 further enhanced the expression of Exon 22 truncated CFTR mRNA to about 80000 copies per 40 ng RNA. […] Full length CFTR W1282X mRNA levels were unchanged in SD-10 & SA-08 or combination treatment compared to untreated or (−) ASO (100 μM) control. (−) ASO (100 μM) E22 trunc mRNA levels were also unchanged compared to untreated cells. […] SD-10 & SA-08 or combination treatments induced a 4.5×, 5.1×, 6.6×, and 7.3× fold change increase in E22 trunc mRNA levels relative to (−) ASO (100 μM) with SD-10 (10 μM), SD-10 (100 μM), SD-10 (10 μM) & SA-08 (10 μM), and SD-10 (100 μM) & SA-08 (10 μM) respectively.

Consider “aaagcaagcagtgttcaaatct (antisense AAAGCAAGCAGTGTTCAAATCT; all 2'-MOE, all phosphorothioate, methylation of C not given here) [SD10, PS backbone, 2′-MOE]”, for which the “Exon 22 truncated CFTR mRNA” value is “about 65000 copies per 40 ng RNA”. Further, where the note is “16HBEge-W1282X”, the “amount of Exon 22 truncated CFTR mRNA compared to no ASO treatment” value (“amount … compared to no ASO treatment” below) is given as “increased” and the “expression of Exon 22 truncated CFTR mRNA enhanced by” value is given as “over 200%”. For the same substance, the “amount … compared to no ASO treatment” value (16HBEge-W1282X, listed as SD-10) is recorded as “significantly increase”. Further, for the setting “SD-10 10 μM, 16HBEge-W1282X”, the “fold change increase in E22 trunc mRNA levels relative to (−) ASO (100 μM)” value amounted to 4.5 ×. In addition, for the setting “SD-10 100 μM, 16HBEge-W1282X”, the “fold change increase in E22 trunc mRNA levels relative to (−) ASO (100 μM)” value turned out to be 5.1 ×.

Regarding “ataaggtaaaagtgatgggatc (antisense ATAAGGTAAAAGTGATGGGATC; all 2'-MOE, all phosphorothioate, methylation of C not given here) [SA8, PS backbone, 2′-MOE]”, the “Exon 22 truncated CFTR mRNA” value was “about 30000 copies per 40 ng RNA”. In addition, the “expression of Exon 22 truncated CFTR mRNA enhanced by” value (16HBEge-W1282X) is “about 100%”. The “amount … compared to no ASO treatment” value (16HBEge-W1282X, listed as SA08) is “increased”. In addition, the “amount … compared to no ASO treatment” value (16HBEge-W1282X, listed as SA-08) is reported as “significantly increase”.

Consider “elexacaftor/ivacaftor/tezacaftor [Trikafta]”, for which the “expression of Exon 22 truncated CFTR mRNA, effect of Trikafta treatment” value (16HBEge-W1282X, all groups) was “did not significantly alter”.
